Source: ChEMBL document CHEMBL5728939, “Myocyte enhancer factor 2 (MEF2) modulators” (2022)

What follows are compounds tested against Histone deacetylase 4/Myocyte-specific enhancer factor 2D (Homo sapiens, UniProt P56524+Q14814) (assay: Inhibitory Effects of the Compounds on MEF2D and HDAC4 Protein Interactions: Detection of MEF2D and HDAC4 interactions. In this mammalian two-hybrid assay, HDAC4 and MEF2D proteins were used. […] Human epithelial carcinoma cells (HeLa) were co-transfected with the two DNA constructs (GAL4-MEF2D and HDAC4-VP16) and a reporter plasmid (Gal4Luc). […] MEF2D and HDAC4 protein interactions were detected as a result of the GAL4-MEF2D and HDAC4-VP16 protein complex binding a DNA promoter on the reporter plasmid (Gal4Luc) and driving cellular expression of a luciferase gene. The measured luciferase protein signal was proportional to the amount of MEF2D and HDAC4 protein interactions occurring with the cell.).
Chain of Histone deacetylase 4/Myocyte-specific enhancer factor 2D (P56524 whole entry, the tested form may be a part): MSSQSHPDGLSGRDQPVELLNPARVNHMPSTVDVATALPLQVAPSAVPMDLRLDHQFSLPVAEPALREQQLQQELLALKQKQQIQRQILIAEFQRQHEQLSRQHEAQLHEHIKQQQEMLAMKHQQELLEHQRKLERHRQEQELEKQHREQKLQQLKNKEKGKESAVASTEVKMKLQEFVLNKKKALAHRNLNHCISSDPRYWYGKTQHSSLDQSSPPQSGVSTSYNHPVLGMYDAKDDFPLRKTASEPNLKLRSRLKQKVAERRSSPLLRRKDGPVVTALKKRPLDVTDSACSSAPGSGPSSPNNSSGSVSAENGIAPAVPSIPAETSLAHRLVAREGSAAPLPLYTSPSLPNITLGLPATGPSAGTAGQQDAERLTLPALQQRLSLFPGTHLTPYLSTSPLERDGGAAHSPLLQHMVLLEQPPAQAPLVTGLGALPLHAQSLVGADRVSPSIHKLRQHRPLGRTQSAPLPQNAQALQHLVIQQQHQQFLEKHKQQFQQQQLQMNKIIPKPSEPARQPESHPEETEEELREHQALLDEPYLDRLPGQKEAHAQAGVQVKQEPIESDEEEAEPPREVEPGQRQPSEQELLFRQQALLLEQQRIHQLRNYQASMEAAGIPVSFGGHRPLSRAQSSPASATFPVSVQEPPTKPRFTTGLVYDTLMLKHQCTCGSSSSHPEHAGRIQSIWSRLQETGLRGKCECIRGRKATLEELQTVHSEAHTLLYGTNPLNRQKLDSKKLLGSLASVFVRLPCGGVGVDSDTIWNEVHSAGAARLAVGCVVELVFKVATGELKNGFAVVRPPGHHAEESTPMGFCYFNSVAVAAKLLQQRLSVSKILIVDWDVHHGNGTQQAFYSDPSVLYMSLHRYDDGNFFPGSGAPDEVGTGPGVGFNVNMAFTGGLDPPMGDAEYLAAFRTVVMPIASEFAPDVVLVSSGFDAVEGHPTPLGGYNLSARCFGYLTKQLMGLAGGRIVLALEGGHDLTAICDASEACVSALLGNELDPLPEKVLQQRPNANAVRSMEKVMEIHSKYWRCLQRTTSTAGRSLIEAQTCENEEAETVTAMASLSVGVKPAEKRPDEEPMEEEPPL
Chain of Histone deacetylase 4/Myocyte-specific enhancer factor 2D (Q14814 whole entry, the tested form may be a part): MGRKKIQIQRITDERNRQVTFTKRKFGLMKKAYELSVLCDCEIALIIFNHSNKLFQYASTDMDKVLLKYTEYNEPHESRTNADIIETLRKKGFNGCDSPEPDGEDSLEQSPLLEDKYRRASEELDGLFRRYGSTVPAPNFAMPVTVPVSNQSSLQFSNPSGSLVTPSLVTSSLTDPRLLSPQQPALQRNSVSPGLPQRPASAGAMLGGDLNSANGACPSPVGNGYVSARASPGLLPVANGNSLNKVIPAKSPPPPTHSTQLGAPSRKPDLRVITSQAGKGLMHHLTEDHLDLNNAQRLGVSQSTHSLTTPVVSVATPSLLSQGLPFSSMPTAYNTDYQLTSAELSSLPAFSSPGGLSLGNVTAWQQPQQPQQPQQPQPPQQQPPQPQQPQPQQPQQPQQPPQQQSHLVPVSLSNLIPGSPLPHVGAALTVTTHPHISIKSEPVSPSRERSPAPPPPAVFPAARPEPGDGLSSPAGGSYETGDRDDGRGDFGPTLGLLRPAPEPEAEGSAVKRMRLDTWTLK

Question: For Nc1ccccc1NC(=O)/C=C/c1cccc(CNc2ccc3ccccc3c2)c1, which IC50 is on record?
Answer: 7.27 µM

Question: For Cc1[nH]c2ccccc2c1CCNCc1cccc(/C=C/C(=O)Nc2ccccc2N)c1, which IC50 is on record?
Answer: 0.51 µM

Question: Which IC50 does the source give for Nc1ccccc1NC(=O)CCCCC(NC(=O)c1ccccc1)C(=O)Nc1ccccc1 (stereo unspecified) here?
Answer: 0.8 µM

These compounds were tested against Histone acetyltransferase p300/Myocyte-specific enhancer factor 2D (Homo sapiens, UniProt Q09472+Q14814) (assay: Inhibitory Effects of the Compounds on MEF2D and P300 Protein Interactions: Detection of MEF2D and P300 interactions. The same system that was used in Example 19 is used in here to detect MEF2D and P300 interactions. In this assay, two separate DNA constructs were made with MEF2D fused with the GAL4 DNA binding domain (GAL4-MEF2D) and P300 fused with the viral transactivator VP-16 […] epithelial carcinoma cells (HeLa) were co-transfected with the two DNA constructs (GAL4-MEF2D and P300-VP16) and a reporter plasmid (Gal4Luc). […] MEF2D and P300 protein interactions were detected as a result of the GAL4-MEF2D and P300-VP16 protein complex binding a DNA promoter on the reporter plasmid (Gal4Luc) and driving cellular expression of a luciferase gene. The measured luciferase protein signal was proportional to the amount of MEF2D and P300 protein interactions occurring with the cell.).
Chain of Histone acetyltransferase p300/Myocyte-specific enhancer factor 2D (Q09472 whole entry, the tested form may be a part): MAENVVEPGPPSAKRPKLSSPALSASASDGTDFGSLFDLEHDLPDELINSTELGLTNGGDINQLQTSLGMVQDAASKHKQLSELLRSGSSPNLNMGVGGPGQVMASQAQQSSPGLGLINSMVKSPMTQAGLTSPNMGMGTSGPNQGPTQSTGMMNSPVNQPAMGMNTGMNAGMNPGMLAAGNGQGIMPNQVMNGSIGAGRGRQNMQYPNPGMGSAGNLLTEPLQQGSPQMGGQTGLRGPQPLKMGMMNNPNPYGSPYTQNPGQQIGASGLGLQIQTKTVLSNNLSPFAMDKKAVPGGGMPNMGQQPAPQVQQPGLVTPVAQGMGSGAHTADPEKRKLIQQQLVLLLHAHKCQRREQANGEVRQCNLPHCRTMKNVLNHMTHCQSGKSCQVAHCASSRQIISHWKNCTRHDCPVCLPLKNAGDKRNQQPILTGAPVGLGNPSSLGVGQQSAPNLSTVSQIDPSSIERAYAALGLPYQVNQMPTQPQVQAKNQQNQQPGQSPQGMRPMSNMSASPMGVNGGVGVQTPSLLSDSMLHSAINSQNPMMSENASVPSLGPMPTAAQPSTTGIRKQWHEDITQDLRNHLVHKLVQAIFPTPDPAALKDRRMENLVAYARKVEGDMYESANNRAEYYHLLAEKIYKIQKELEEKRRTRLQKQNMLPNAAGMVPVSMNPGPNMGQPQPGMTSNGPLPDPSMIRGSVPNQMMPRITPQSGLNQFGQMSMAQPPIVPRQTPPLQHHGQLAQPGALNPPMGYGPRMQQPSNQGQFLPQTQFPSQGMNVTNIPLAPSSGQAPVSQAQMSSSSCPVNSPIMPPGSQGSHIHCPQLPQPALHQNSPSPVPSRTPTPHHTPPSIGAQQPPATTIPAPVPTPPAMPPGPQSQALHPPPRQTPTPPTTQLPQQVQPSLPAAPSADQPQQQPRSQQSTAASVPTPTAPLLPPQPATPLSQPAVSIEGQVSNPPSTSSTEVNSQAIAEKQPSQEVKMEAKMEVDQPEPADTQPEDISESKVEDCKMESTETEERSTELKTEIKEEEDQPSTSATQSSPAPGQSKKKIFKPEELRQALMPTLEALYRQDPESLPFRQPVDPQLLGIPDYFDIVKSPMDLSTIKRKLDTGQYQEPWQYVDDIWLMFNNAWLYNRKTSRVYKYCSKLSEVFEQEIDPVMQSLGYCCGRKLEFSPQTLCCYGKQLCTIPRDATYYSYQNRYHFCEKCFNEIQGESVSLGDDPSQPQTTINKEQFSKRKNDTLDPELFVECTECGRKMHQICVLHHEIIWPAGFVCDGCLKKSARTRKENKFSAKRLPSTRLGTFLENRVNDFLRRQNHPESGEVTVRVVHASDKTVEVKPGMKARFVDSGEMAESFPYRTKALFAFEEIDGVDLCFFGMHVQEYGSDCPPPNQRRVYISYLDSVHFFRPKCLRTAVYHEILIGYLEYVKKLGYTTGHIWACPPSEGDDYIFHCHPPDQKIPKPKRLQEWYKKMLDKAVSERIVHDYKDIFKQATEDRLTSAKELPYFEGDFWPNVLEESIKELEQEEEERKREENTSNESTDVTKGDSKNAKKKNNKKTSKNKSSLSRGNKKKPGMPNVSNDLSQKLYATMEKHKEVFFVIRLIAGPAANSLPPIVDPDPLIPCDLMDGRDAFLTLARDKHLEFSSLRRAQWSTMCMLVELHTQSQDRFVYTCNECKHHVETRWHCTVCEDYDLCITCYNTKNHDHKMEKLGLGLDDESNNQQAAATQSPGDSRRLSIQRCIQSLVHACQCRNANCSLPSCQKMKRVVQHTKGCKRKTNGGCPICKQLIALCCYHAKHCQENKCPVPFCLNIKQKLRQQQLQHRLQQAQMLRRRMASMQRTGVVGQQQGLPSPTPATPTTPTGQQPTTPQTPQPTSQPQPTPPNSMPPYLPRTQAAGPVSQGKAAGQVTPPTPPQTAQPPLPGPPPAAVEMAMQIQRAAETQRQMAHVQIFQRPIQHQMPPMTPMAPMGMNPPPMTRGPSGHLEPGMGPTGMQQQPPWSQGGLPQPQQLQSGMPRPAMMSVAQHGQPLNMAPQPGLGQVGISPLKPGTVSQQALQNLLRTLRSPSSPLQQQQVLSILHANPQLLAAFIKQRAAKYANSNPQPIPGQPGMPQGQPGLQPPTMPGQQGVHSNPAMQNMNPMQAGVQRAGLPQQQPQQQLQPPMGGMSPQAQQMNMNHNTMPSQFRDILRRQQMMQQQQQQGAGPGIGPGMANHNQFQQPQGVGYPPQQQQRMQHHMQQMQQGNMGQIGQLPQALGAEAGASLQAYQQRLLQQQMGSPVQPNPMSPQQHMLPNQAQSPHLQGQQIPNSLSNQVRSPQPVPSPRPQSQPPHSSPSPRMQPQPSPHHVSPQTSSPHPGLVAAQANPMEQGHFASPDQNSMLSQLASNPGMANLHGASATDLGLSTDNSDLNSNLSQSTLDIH
Chain of Histone acetyltransferase p300/Myocyte-specific enhancer factor 2D (Q14814 whole entry, the tested form may be a part): as the sequence (Q14814 whole entry, the tested form may be a part) above

Question: For Nc1ccccc1NC(=O)/C=C/c1cccc(CNc2ccc3ccccc3c2)c1, which IC50 is on record?
Answer: 0.72 µM

Question: How did the IC50 turn out when Cc1[nH]c2ccccc2c1CCNCc1cccc(/C=C/C(=O)Nc2ccccc2N)c1 was run?
Answer: 0.27 µM

Question: With Nc1ccccc1NC(=O)CCCCC(NC(=O)c1ccccc1)C(=O)Nc1ccccc1 (stereo unspecified) as the compound, how does the IC50 read?
Answer: 0.7 µM
